From patent publication US8877748B2, “Heterocyclic fused anthraquinone derivatives, manufacturing method and pharmaceutical composition using thereof” (National Defense Medical Center, priority 2012, dated 2014)
Read-outs that look alike come from different tables or passages of the source.

Key:
MDA-MB-231/ATCC = test: NCI one-dose screening, breast cancer MDA-MB-231/ATCC; format: cell-based, human; conditions: 10 μM
T-47D = test: NCI one-dose screening, breast cancer T-47D; format: cell-based, human; conditions: 10 μM
LOX IMVI = test: NCI one-dose screening, melanoma LOX IMVI; format: cell-based, human; conditions: 10 μM
U251 = test: NCI one-dose screening, CNS cancer U251; format: cell-based, human; conditions: 10 μM
OVCAR-3 = test: NCI one-dose screening, ovarian cancer OVCAR-3; format: cell-based, human; conditions: 10 μM
NCI-H522 = test: NCI one-dose screening, non-small cell lung cancer NCI-H522; format: cell-based, human; conditions: 10 μM
SR = test: NCI one-dose screening, leukemia SR; format: cell-based, human; conditions: 10 μM
HOP-92 = test: NCI one-dose screening, non-small cell lung cancer HOP-92; format: cell-based, human; conditions: 10 μM
DU145 = test: NCI one-dose screening, prostate cancer DU145; format: cell-based, human; conditions: 10 μM
SK-OV-3 = test: NCI one-dose screening, ovarian cancer SK-OV-3; format: cell-based, human; conditions: 10 μM
MOLT-4 = test: NCI one-dose screening, leukemia MOLT-4; format: cell-based, human; conditions: 10 μM
COLO 205 = test: NCI one-dose screening, colon cancer COLO 205; format: cell-based, human; conditions: 10 μM
SF-295 = test: NCI one-dose screening, CNS cancer SF-295; format: cell-based, human; conditions: 10 μM
NCI-H322M = test: NCI one-dose screening, non-small cell lung cancer NCI-H322M; format: cell-based, human; conditions: 10 μM; Non-small cell lung cancer
KM12 = test: NCI one-dose screening, colon cancer KM12; format: cell-based, human; conditions: 10 μM
NCI-H460 = test: NCI one-dose screening, non-small cell lung cancer NCI-H460; format: cell-based, human; conditions: 10 μM
OVCAR-8 = test: NCI one-dose screening, ovarian cancer OVCAR-8; format: cell-based, human; conditions: 10 μM
HCT-116 = test: NCI one-dose screening, colon cancer HCT-116; format: cell-based, human; conditions: 10 μM
NCl/ADR-RES = test: NCI one-dose screening, breast cancer NCl/ADR-RES; format: cell-based, human; conditions: 10 μM; listed under Ovarian cancer
PRMI-8226 cell line = test: NCI one-dose screening, leukemia PRMI-8226; format: cell-based, human; conditions: 10 μM
M14 = test: NCI one-dose screening, melanoma M14; format: cell-based, human; conditions: 10 μM
human tumor cell lines = test: NCI one-dose screening, Mean / Delta / Range of growth percent over all tested cell lines; format: cell-based; conditions: 10 μM
[1] = tested on: PC-3 prostate cancer cell line; test: SRB assay cell viability, PC-3 prostate cancer cell line; format: cell-based, human; conditions: Homo sapiens
SNB-75 = test: NCI one-dose screening, CNS cancer SNB-75; format: cell-based, human; conditions: 10 μM
IGROV1 = test: NCI one-dose screening, ovarian cancer IGROV1; format: cell-based, human; conditions: 10 μM
MDA-MB-468 = test: NCI one-dose screening, breast cancer MDA-MB-468; format: cell-based, human; conditions: 10 μM
PC-3 = test: NCI one-dose screening, prostate cancer PC-3; format: cell-based, human; conditions: 10 μM
MALME-3M = test: NCI one-dose screening, melanoma MALME-3M; format: cell-based, human; conditions: 10 μM
HCC-2998 = test: NCI one-dose screening, colon cancer HCC-2998; format: cell-based, human; conditions: 10 μM
TK-10 = test: NCI one-dose screening, renal cancer TK-10; format: cell-based, human; conditions: 10 μM
SN12C = test: NCI one-dose screening, renal cancer SN12C; format: cell-based, human; conditions: 10 μM
HS 578-T = test: NCI one-dose screening, breast cancer HS 578-T; format: cell-based, human; conditions: 10 μM; Breast cancer
SF-539 = test: NCI one-dose screening, CNS cancer SF-539; format: cell-based, human; conditions: 10 μM
SK-MEL-5 = test: NCI one-dose screening, melanoma SK-MEL-5; format: cell-based, human; conditions: 10 μM
K562cell line = test: NCI one-dose screening, leukemia K562; format: cell-based, human; conditions: 10 μM
SNB-19 = test: NCI one-dose screening, CNS cancer SNB-19; format: cell-based, human; conditions: 10 μM
HOP-62 = test: NCI one-dose screening, non-small cell lung cancer HOP-62; format: cell-based, human; conditions: 10 μM
SK-MEL-2 = test: NCI one-dose screening, melanoma SK-MEL-2; format: cell-based, human; conditions: 10 μM
[2] = NCI one-dose screening, renal cancer A489; format: cell-based, human; conditions: 10 μM
BT-549 = test: NCI one-dose screening, breast cancer BT-549; format: cell-based, human; conditions: 10 μM
OVCAR-4 = test: NCI one-dose screening, ovarian cancer OVCAR-4; format: cell-based, human; conditions: 10 μM
HCT-15 = test: NCI one-dose screening, colon cancer HCT-15; format: cell-based, human; conditions: 10 μM
UO-31 = test: NCI one-dose screening, renal cancer UO-31; format: cell-based, human; conditions: 10 μM
CCRF-CEM = test: NCI screening platform one-dose single concentration screening, leukemia CCRF-CEM; format: cell-based, human; conditions: 10 μM
HL-60, TB = test: NCI one-dose screening, leukemia HL-60, TB; format: cell-based, human; conditions: 10 μM
UACC-257 = test: NCI one-dose screening, melanoma UACC-257; format: cell-based, human; conditions: 10 μM
RXF, 393 = test: NCI one-dose screening, renal cancer RXF, 393; format: cell-based, human; conditions: 10 μM
A549/ATCC = test: NCI one-dose screening, non-small cell lung cancer A549/ATCC; format: cell-based, human; conditions: 10 μM
SF-268 = test: NCI one-dose screening, CNS cancer SF-268; format: cell-based, human; conditions: 10 μM
CAKI-1 = test: NCI one-dose screening, renal cancer CAKI-1; format: cell-based, human; conditions: 10 μM
UACC-62 = test: NCI one-dose screening, melanoma UACC-62; format: cell-based, human; conditions: 10 μM
MCF7 = test: NCI one-dose screening, breast cancer MCF7; format: cell-based, human; conditions: 10 μM
MDA, -MB-435 = test: NCI one-dose screening, breast cancer MDA, -MB-435; format: cell-based, human; conditions: 10 μM; listed under Melanoma
SK-MEL-28 = test: NCI one-dose screening, melanoma SK-MEL-28; format: cell-based, human; conditions: 10 μM
NCI-H23 = test: NCI one-dose screening, non-small cell lung cancer NCI-H23; format: cell-based, human; conditions: 10 μM
786-O = test: NCI one-dose screening, renal cancer 786-O; format: cell-based, human; conditions: 10 μM

## O=C1c2ccccc2C(=O)c2c1cc(SCc1ccccc1)c1nsnc21 [C21, 4-(benzyl-thio)anthra[2,1-c][1,2,5] thiadiazol-6,11-dione]
MDA-MB-231/ATCC
  Growth Percent MDA-MB-231/ATCC: −13.36%
T-47D
  Growth Percent T-47D: −46.11%
LOX IMVI
  Growth Percent LOX IMVI: 7.49%
U251
  Growth Percent U251: 30.51%
OVCAR-3
  Growth Percent OVCAR-3: 25.27%
NCI-H522
  Growth Percent NCI-H522: 92.01%
SR
  Growth Percent SR: 1.25%
HOP-92
  Growth Percent HOP-92: 83.65%
DU145
  Growth Percent DU145: 82.23%
SK-OV-3
  Growth Percent SK-OV-3: 80.29%
MOLT-4
  Growth Percent MOLT-4: −20.97%
COLO 205
  Growth Percent COLO 205: 102.93%
SF-295
  Growth Percent SF-295: 91.56%
NCI-H322M
  Growth Percent NCI-H322M: 55.30%
KM12
  Growth Percent KM12: 103.02%
NCI-H460
  Growth Percent NCI-H460: 98.44%
OVCAR-8
  Growth Percent OVCAR-8: 6.01%
HCT-116
  Growth Percent HCT-116: 53.06%
NCl/ADR-RES
  Growth Percent NCI/ADR-RES: 62.34%
PRMI-8226 cell line
  Growth Percent RPMI-8226: 43.23%
M14
  Growth Percent M14: 86.54%
Human tumor cell lines; delta over all cell lines
  Growth Percent Delta: 136.92%
Human tumor cell lines; mean over all cell lines
  Growth Percent Mean: 51.63%
Human tumor cell lines; range over all cell lines
  Growth Percent Range: 215.19%
[1]; PC-3 prostate cancer cell line, Table II prints no unit, μM printed, read-out: SRB assay: 50% inhibition of cancer cell proliferation of sample concentration (IC50) of PC-3 prostate cancer cell line
  IC50: > 15 µM
[1]; PC-3 prostate cancer cells, read-out: IC50 in PC-3 prostate cancer cells (cell viability analysis)
  IC50: > 15 µM
SNB-75
  Growth Percent SNB-75: 39.58%
IGROV1
  Growth Percent IGROV1: 43.88%
MDA-MB-468
  Growth Percent MDA-MB-468: −85.29%
PC-3
  Growth Percent PC-3: 38.44%
MALME-3M
  Growth Percent MALME-3M: 80.81%
HCC-2998
  Growth Percent HCC-2998: 115.02%
TK-10
  Growth Percent TK-10: 129.90%
SN12C
  Growth Percent SN12C: 66.11%
HS 578-T
  Growth Percent HS 578T: 59.96%
SF-539
  Growth Percent SF-539: 68.26%
SK-MEL-5
  Growth Percent SK-MEL-5: 22.53%
K562cell line
  Growth Percent K562: 10.51%
SNB-19
  Growth Percent SNB-19: 94.26%
HOP-62
  Growth Percent HOP-62: 94.98%
SK-MEL-2
  Growth Percent SK-MEL-2: −3.95%
[2]
  Growth Percent A498: 88.61%
BT-549
  Growth Percent BT-549: 96.19%
OVCAR-4
  Growth Percent OVCAR-4: −68.15%
HCT-15
  Growth Percent HCT-15: 54.72%
UO-31
  Growth Percent UO-31: 73.75%
CCRF-CEM
  Growth Percent CCRF-CEM: 0.65%
HL-60, TB
  Growth Percent HL-60(TB): 70.32%
UACC-257
  Growth Percent UACC-257: 58.86%
RXF, 393
  Growth Percent RXF 393: 68.12%
A549/ATCC
  Growth Percent A549/ATCC: 101.64%
SF-268
  Growth Percent SF-268: 56.01%
CAKI-1
  Growth Percent CAKI-1: 73.77%
UACC-62
  Growth Percent UACC-62: 43.08%
MCF7
  Growth Percent MCF7: 56.44%
MDA, -MB-435
  Growth Percent MDA-MB-435: −48.29%
SK-MEL-28
  Growth Percent SK-MEL-28: 95.00%
NCI-H23
  Growth Percent NCI-H23: 101.09%
786-O
  Growth Percent 786-0: 92.60%
